Paper PMC10783034, “Pharmacokinetic and pharmacodynamic evaluation of the atypical tetracyclines chelocardin and amidochelocardin in murine infection models” (Microbiology Spectrum, 2023)
In brackets after ≈: the same amount, converted by molar mass.

Assays:
[1] = test system: E. coli C175-94; experiment: Ascending urinary tract infection model in OF-1 mice; type: in vivo; details: for bacterial burden in urine: CHD/CDCHD 12 mg/kg SC BID on day 1 and 2 post-inoculation; for bacterial burden in urine / bacterial burden in kidneys / bacterial burden in the bladder: day 3, vs vehicle; for animals with sterile kidneys / bacterial burden in kidneys / bacterial burden in the bladder: CHD/CDCHD 12 mg/kg SC BID, gentamicin 100 mg/kg SC BID; for animals with sterile kidneys: control animals 23.8%
Method: The model was conducted as described previously ([27], [60]). In brief, n = 21 animals were used per group in the main study, and n = 3 animals per group in satellite groups for histopathological analysis. Three days before the start of the study and during the study, mice had free access to 5% glucose as drinking water. Fresh overnight colonies of E. coli from a 5% horse blood agar plate were suspended in PBS pH 7.4 to approximately 10^9 cfu/mL. Approximately 1 hour before inoculation, mice were treated orally with […] Nurofen (20 mg ibuprofen/mL corresponding to approximately 30 mg/kg) as a pain relief. Urine was removed from the bladder by gently pressing the abdomen and mice were anaesthetized with 0.15 mL Zoletil mix SC. Thereafter, the mice were inoculated. A syringe with a catheter, containing the bacterial suspension was inserted via the urethra into the bladder and 50 µL of the inoculum was slowly injected into the bladder. Hereafter, the mouse was placed in the cage and kept in a warming cabinet until fully awake (approximately 4 hours). The mice were treated with CHD (12 mg/kg SC BID), CDCHD (12 mg/kg SC BID), gentamicin (100 mg/kg SC BID), or vehicle BID (2nd dose was administered approximately 6 hours after the 1st dose on each day) on day 1, that is, first dose around 24 hours post-infection, and day 2 post-inoculation. The mice were observed during the study and scored based on their behavior and clinical signs. Clinical scoring comprised assessment of piloerection in the skin, activity (movement, curiosity), and appearance of eyes. The scoring range comprised 0–4. In our model, a maximum score of 1; thus, only mild discomfort was observed. On day 3 post-inoculation and after sampling urine, mice were euthanized by cervical dislocation, and bladder and kidneys were removed from 21 mice in each treatment group aseptically for cfu determination. The bladder and kidneys were stored at −80°C and later homogenized in 0.5 or 1 mL saline, respectively. Colony counts of urine were determined immediately. From the three additional mice in each treatment group (satellite groups), urine and plasma were sampled and frozen at −80°C, and bladders, kidneys, and liver were collected in 4% buffered formalin. Cfu was determined in urine samples within 2–3 hours after sampling. Frozen organs were thawed and homogenized with steel beads using a tissue lyser. All samples, urine, kidney, and bladder, were 10-fold diluted in saline and 20 µL spots were applied on blue agar plates in duplicates. In addition, undiluted samples of urine (2–100 μL depending on the available amount of urine) were spread on a separate agar plate to determine the colony counts at the lowest possible detection level. All agar plates were incubated for 18–22 hours at 35°C in ambient air.
For the neutropenic thigh infection model with E. coli ATCC 25922, the thighs were regarded as two independent infection sites throughout the experiment. For statistical analysis, individual thighs (left and right) were treated as separate samples although these were not completely independent values. For the neutropenic thigh infection model with K. pneumoniae ATCC 43816, the individual thighs (left and right) were treated as one sample. For the efficacy models, the non-parametric Kruskal-Wallis test was used with GraphPad Prism 9.4.1. For the ascending urinary tract infection model, an ordinary one-way ANOVA with Dunnett’s multiple comparison test was used with GraphPad Prism 9.4.1.

[2] = test system: ESKAPE pathogens; experiment: MIC determination against a variety of ESKAPE pathogens; type: cell-based; details: against A. baumannii, P. aeruginosa, and E. aerogenes
Method: (§1) The assay was conducted as described previously ([54]) with the following modifications. The MIC was tested against the K. pneumoniae strain ATCC 43816 in an MHB (not cation-adjusted) medium. CHD and CDCHD were tested in concentrations ranging from 0.078 to 10 µg/mL. Moreover, the MIC was determined for the following strains: K. pneumoniae DSM-30104, E. faecium DSM-20477, S. aureus DSM-346, P. aeruginosa DSM-11128, A. baumannii DSM-30008, E. aerogenes DSM-30053, E. coli ATCC 25922, and E. coli C175-94. All strains were grown in MHB medium, except for E. faecium, which was grown in TSB. CHD, epi-CDH, and CDCHD were tested in concentrations ranging from 0.125 to 64 µg/mL as described previously ([19]).

[3] = test system: K. pneumoniae ATCC 43816; experiment: MIC determination; type: cell-based; details: MHB (not cation-adjusted) medium
Method: as §1

| SMILES | bacterial burden in urine [1] | animals with sterile kidneys [1] [%] | bacterial burden in kidneys [1] | bacterial burden in the bladder [1] | activity (in words) [2] | MIC [3] [µg/mL] |
| --- | --- | --- | --- | --- | --- | --- |
| Cc1ccc2c(C)c3c(c(O)c2c1O)C(=O)C1(O)C(=O)C(C(N)=O)=C(O)C(N)C1C3 (stereo not shown) [CDCHD, 2-carboxamido-2-deacetyl-chelocardin] | reduced bacterial burden in urine significantly | 61.9 | strong and significant reduction | significant reduction compared to vehicle control | – | – |
| CC(=O)C1=C(O)[C@H](N)[C@@H]2Cc3c(c(O)c4c(O)c(C)ccc4c3C)C(=O)[C@]2(O)C1=O [CHD, chelocardin] | reduced bacterial burden in urine significantly | 38.1 | slight, non-significant effect | significant reduction compared to vehicle control | inactive | 5 (≈ 12.2 µM) |
